Test results published in patent publication US11072619B2, “Pyrazole[1,5-a] pyrimidine derivatives as kinase JAK inhibitors” (CELON PHARMA S.A., priority 2017, dated 2021).
pIC50: −log10 of the molar value.

Tested on: TF-1 cells
Assay: TF-1 cells viability in vitro in the presence of IL-4 (JAK1/JAK3 activation)
Type: cell-based
Details: for pIC50: Homo sapiens, TF-1, 20 ng/mL IL-4, 72 hours, ATPlite, read-out: JAK1,3 IL4 (EC50, inhibition of viability of TF-1 cells); for JAK2/JAK1,3 Ratio: ratio of TF-1 viability EC50 with IL3 to EC50 with IL4
Procedure: Assay for TF-1 Cells Viability In Vitro
The effects of the activity of the compounds of the invention were tested in vitro using cells viability assay described below.
Tested compounds were dissolved in 100% DMSO, and obtained stock solutions were serially diluted in OptiMEM medium (Reduced Serum Medium-Thermo Fisher Scientific). TF-1 cells (DSMZ no.: ACC 334) in culture medium (80% RPMI 1640+20% FBS) ad in the presence of 5 ng/mL IL-3 or 20 ng/mL IL-4 were deposited on 96-well plates in the volume of 90 μl per well, 10 thousands of cells per well. To a well of the 96-well plate 10 μL of the prepared 10× stock solutions of the compounds. Cells on 96-well plates were incubated with the compounds for 72 hours at 37° C., 5% CO2. Subsequently, viability of the cells was measured using ATPlite kit (Perkin Elmer). For this purpose, 50 μL of lysis buffer (mammalian cell lysis solution) were added to a well of the 96-well plate and the plate was incubated for 10 minutes at 25° C. in a plate thermo-shaker with orbital stirring at 600 rpm. Then to a well of the 96-well plate 50 μL of substrate (substrate solution) were added and incubated for 15 minutes at in dark, in a plate thermo-shaker with orbital stirring at 600 rpm. After incubation time, luminescence intensity in a well was measured using Victor×Light luminometer (Perkin Elmer, Inc.).
On the basis of luminescence intensity measurements in well containing tested compounds at various concentrations and in control wells EC50 values were determined. These values were determined with Graph Pad software v. 5.03, by fitting points of the curve using non-linear regression method. Each compound was tested in at least 6 repetitions (6 wells) on two 96-well plates, using at least 3 wells of each control.

| Structure (SMILES) | pIC50 | JAK2/JAK1,3 Ratio |
| --- | --- | --- |
| COc1ccc(-c2cc3ncc(C(N)=O)c(N[C@@H]4CCN(c5ccc(C#N)nn5)CC4(C)C)n3n2)cn1 [Example 4, (R)-7-((1-(6-Cyanopyridazin-3-yl)-3,3-dimethylpiperidin-4-yl)amino)-2-(6-methoxy-pyridin-3-yl)pyrazolo[1,5-a]pyrimidine-6-carboxamide] | 7.16 | 10.3 |
| CC1(C)CN(c2ccc(C#N)nn2)CC[C@H]1Nc1c(C(N)=O)cnc2cc(-c3ccc(N4CCOCC4)nc3)nn12 [Example 7, (R)-7-((1-(6-Cyanopyridazin-3-yl)-3,3-dimethylpiperidin-4-yl)amino)-2-(6-morpholinopyridin-3-yl)pyrazolo[1,5-a]pyrimidine-6-carboxamide] | 7.44 | 7.8 |
| COc1cccc(-c2cc3ncc(C(N)=O)c(N[C@@H]4CCN(c5ccc(C#N)nn5)CC4(C)C)n3n2)n1 [Example 11, (R)-7-((1-(6-Cyanopyridazin-3-yl)-3,3-dimethylpiperidin-4-yl)amino)-2-(6-methoxy-pyridin-2-yl)pyrazolo[1,5-a]pyrimidine-6-carboxamide] | 7.21 | 7.4 |
| Cc1cc(-c2cc3ncc(C(N)=O)c(N[C@@H]4CCN(c5ccc(C#N)nn5)CC4(C)C)n3n2)ccn1 [Example 12, (R)-7-((1-(6-Cyanopyridazin-3-yl)-3,3-dimethylpiperidin-4-yl)amino)-2-(2-methyl-pyridin-4-yl)pyrazolo[1,5-a]pyrimidine-6-carboxamide] | 7.51 | 11.6 |
